Reference: patent US8017612B2, “Piperazine compound and use thereof as a HCV polymerase inhibitor” (priority 2006, dated 2011)

Columns and labels:
[1] = biological target: T1, HCV polymerase (NS5B) type 1b (Hepatitis C virus genotype 1b, UniProt P26663); test: Assay of enzyme (HCV polymerase) inhibitory activity, type 1b enzyme; format: biochemical, HCV BK strain (type 1b); conditions: HCV polymerase inhibitory activity (IC50), 1b, type 1b enzyme 0.5 μg/ml, 25° C., 60 min
T1 construct: a region encoding NS5B (J Virol 1991 March, 65(3), 1105-13, 544 amino acids after deletion of 47 amino acids on the C-terminal); 6xHis (C); made in house; host or cells: Escherichia coli
In short: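 His-tagged, C-terminally truncated NS5B (BK strain, 1b; 0.5 μg/ml) incubated with compound 60 min at 25 °C on 3′UTR-derived substrate RNA (5 μg/ml), 50 μM ATP/GTP/CTP, 2 μM UTP plus [3H]UTP, pH 7.5. Acid-precipitated RNA counted; IC50 from radioactivity with and without compound.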

[2] = biological target: T2, HCV polymerase (NS5B) type 1a (Hepatitis C virus genotype 1a, UniProt P26664); test: Assay of enzyme (HCV polymerase) inhibitory activity, type 1a enzyme; format: biochemical, HCV type 1a (cloned from the blood of patients); conditions: HCV polymerase inhibitory activity (IC50), 1a, type 1a enzyme 1.5 μg/ml, 25° C., 60 min
T2 construct: made in house; host or cells: Escherichia coli (by the 'similar method' of the 1b enzyme)
In short: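 His-tagged NS5B, C-terminal 47 residues deleted, type 1a at 1.5 μg/ml, with 5 μg/ml HCV 3′UTR substrate RNA, 50 μM ATP/GTP/CTP, 2 μM UTP plus [3H]UTP, pH 7.5 Tris, 5 mM MgCl2; 60 min at 25° C. TCA-precipitated RNA counted by scintillation; IC50 from radioactivity with vs. without compound.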

CC(=O)N1CCN(S(=O)(=O)c2ccc(C(C)C)cc2)C(C(=O)NCc2ccc(C(C)C)cc2)C1 (centres unmarked) [Example 117, 4-acetyl-1-(4-isopropyl-benzenesulfonyl)-piperazine-2-carboxylic acid 4-isopropyl-benzylamide]
IC50 [1]: 100 to 1000 nM | IC50 [2]: 100 to 1000 nM

CC(=O)N1CCN(S(=O)(=O)c2ccc(C(C)C)cc2)C(C(=O)NCCc2ccccc2)C1 (centres unmarked) [Example 118, 4-acetyl-1-(4-isopropyl-benzenesulfonyl)-piperazine-2-carboxylic acid phenethyl-amide]
IC50 [1]: > 1000 nM | IC50 [2]: > 1000 nM

CC(=O)N1CCN(S(=O)(=O)c2ccc(C(C)C)cc2)C(C(=O)NCc2cccc(C(F)(F)F)c2)C1 (centres unmarked) [Example 119, 4-acetyl-1-(4-isopropyl-benzenesulfonyl)-piperazine-2-carboxylic acid 3-trifluoromethyl-benzylamide]
IC50 [1]: > 1000 nM | IC50 [2]: > 1000 nM

CC(=O)N1CCN(S(=O)(=O)c2ccc(C(C)C)cc2)C(C(=O)NCc2ccccc2C(F)(F)F)C1 (centres unmarked) [Example 120, 4-acetyl-1-(4-isopropyl-benzenesulfonyl)-piperazine-2-carboxylic acid 2-trifluoromethyl-benzylamide]
IC50 [1]: > 1000 nM | IC50 [2]: > 1000 nM

CC(=O)N1CCN(S(=O)(=O)c2ccc(C(C)C)cc2)C(C(=O)NCc2cccc(OC(F)(F)F)c2)C1 (centres unmarked) [Example 121, 4-acetyl-1-(4-isopropyl-benzenesulfonyl)-piperazine-2-carboxylic acid 3-trifluoromethoxy-benzylamide]
IC50 [1]: > 1000 nM | IC50 [2]: > 1000 nM

CN(C)c1ccc(CNC(=O)C2CN(C(=O)CC3CCCCC3)CCN2S(=O)(=O)c2ccc(I)cc2)cc1 (centres unmarked) [Example 122, 4-(2-cyclohexyl-acetyl)-1-(4-iodo-benzenesulfonyl)-piperazine-2-carboxylic acid 4-dimethylamino-benzylamide]
IC50 [1]: > 1000 nM | IC50 [2]: > 1000 nM

CC(C)c1ccc(S(=O)(=O)N2CCN(C(=O)c3ccccc3)CC2C(=O)NCc2ccc(C(F)(F)F)cc2)cc1 (centres unmarked) [Example 123, 4-benzoyl-1-(4-isopropyl-benzenesulfonyl)-piperazine-2-carboxylic acid 4-trifluoromethyl-benzylamide]
IC50 [1]: > 1000 nM | IC50 [2]: > 1000 nM

CC(C)c1ccc(S(=O)(=O)N2CCN(C(=O)Cc3ccccc3)CC2C(=O)NCc2ccc(C(F)(F)F)cc2)cc1 (centres unmarked) [Example 124, 1-(4-isopropyl-benzenesulfonyl)-4-phenylacetyl-piperazine-2-carboxylic acid 4-trifluoromethyl-benzylamide]
IC50 [1]: > 1000 nM | IC50 [2]: > 1000 nM

CC(C)c1ccc(S(=O)(=O)N2CCN(C(=O)COc3ccccc3)CC2C(=O)NCc2ccc(C(F)(F)F)cc2)cc1 (centres unmarked) [Example 125, 1-(4-isopropyl-benzenesulfonyl)-4-(2-phenoxy-acetyl)-piperazine-2-carboxylic acid 4-trifluoromethyl-benzylamide]
IC50 [1]: > 1000 nM | IC50 [2]: > 1000 nM

CC(=O)N1CCN(S(=O)(=O)c2ccc(C(C)C)cc2)C(C(=O)NCc2ccc(Oc3ccccc3)cc2)C1 (centres unmarked) [Example 126, 4-acetyl-1-(4-isopropyl-benzenesulfonyl)-piperazine-2-carboxylic acid 4-phenoxy-benzylamide]
IC50 [1]: > 1000 nM | IC50 [2]: > 1000 nM

CC(=O)N1CCN(S(=O)(=O)c2ccc(C(C)C)cc2)C(C(=O)NCc2ccc(OC(C)C)cc2)C1 (centres unmarked) [Example 127, 4-acetyl-1-(4-isopropyl-benzenesulfonyl)-piperazine-2-carboxylic acid 4-isopropoxy-benzylamide]
IC50 [1]: > 1000 nM | IC50 [2]: > 1000 nM

CC(=O)N1CCN(S(=O)(=O)c2ccc(C(C)C)cc2)C(C(=O)NCc2cccc(N(C)C)c2)C1 (centres unmarked) [Example 128, 4-acetyl-1-(4-isopropyl-benzenesulfonyl)-piperazine-2-carboxylic acid 3-dimethylamino-benzylamide]
IC50 [1]: > 1000 nM | IC50 [2]: > 1000 nM

CC(=O)N1CCN(S(=O)(=O)c2ccc(C(C)C)cc2)C(C(=O)NCc2ccccc2N(C)C)C1 (centres unmarked) [Example 129, 4-acetyl-1-(4-isopropyl-benzenesulfonyl)-piperazine-2-carboxylic acid 2-dimethylamino-benzylamide]
IC50 [1]: > 1000 nM | IC50 [2]: > 1000 nM

CCC(=O)N1CCN(S(=O)(=O)c2ccc(I)cc2)C(C(=O)NCc2ccc(N(C)C)cc2)C1 (centres unmarked) [Example 130, 1-(4-iodo-benzenesulfonyl)-4-propionyl-piperazine-2-carboxylic acid 4-dimethylamino-benzylamide]
IC50 [1]: > 1000 nM | IC50 [2]: > 1000 nM

CN(C)c1ccc(CNC(=O)C2CN(C(=O)Cc3ccccc3)CCN2S(=O)(=O)c2ccc(I)cc2)cc1 (centres unmarked) [Example 131, 1-(4-iodo-benzenesulfonyl)-4-phenylacetyl-piperazine-2-carboxylic acid 4-dimethylamino-benzylamide]
IC50 [1]: 100 to 1000 nM | IC50 [2]: > 1000 nM

CC(=O)N1CCN(S(=O)(=O)c2ccc(CO)cc2)C(C(=O)NCc2ccc(C(F)(F)F)cc2)C1 (centres unmarked) [Example 132, 4-acetyl-1-(4-hydroxymethyl-benzenesulfonyl)-piperazine-2-carboxylic acid 4-trifluoromethyl-benzylamide]
IC50 [1]: > 1000 nM | IC50 [2]: > 1000 nM

CC(C)c1ccc(S(=O)(=O)N2CCN(C3=NCCO3)CC2C(=O)NCc2ccc(C(F)(F)F)cc2)cc1 (centres unmarked) [Example 133, 4-(4,5-dihydro-oxazol-2-yl)-1-(4-isopropyl-benzenesulfonyl)-piperazine-2-carboxylic acid 4-trifluoromethyl-benzylamide]
IC50 [1]: > 1000 nM | IC50 [2]: > 1000 nM

CC(C)c1ccc(S(=O)(=O)N2CCN(c3nc4ccccc4s3)CC2C(=O)NCc2ccc(C(F)(F)F)cc2)cc1 (centres unmarked) [Example 134, 4-benzothiazol-2-yl-1-(4-isopropyl-benzenesulfonyl)-piperazine-2-carboxylic acid 4-trifluoromethyl-benzylamide]
IC50 [1]: > 1000 nM | IC50 [2]: > 1000 nM

CC(C)c1ccc(S(=O)(=O)N2CCN(c3nc(-c4ccccc4)cs3)CC2C(=O)NCc2ccc(C(F)(F)F)cc2)cc1 (centres unmarked) [Example 135, 1-(4-isopropyl-benzenesulfonyl)-4-(4-phenyl-thiazol-2-yl)-piperazine-2-carboxylic acid 4-trifluoromethyl-benzylamide]
IC50 [1]: > 1000 nM | IC50 [2]: > 1000 nM

COc1ccc(S(=O)(=O)N2CCN(C(C)=O)CC2C(=O)NCc2ccc(C(F)(F)F)cc2)cc1OC (centres unmarked) [Example 136, 4-acetyl-1-(3,4-dimethoxy-benzenesulfonyl)-piperazine-2-carboxylic acid 4-trifluoromethyl-benzylamide]
IC50 [1]: > 1000 nM | IC50 [2]: > 1000 nM

CC(=O)N1CCN(S(=O)(=O)c2ccc(C(C)C)cc2)[C@@H](C(=O)NCc2ccc(C(C)C)cc2)C1 [Example 137, (R)-4-acetyl-1-(4-isopropyl-benzenesulfonyl)-piperazine-2-carboxylic acid 4-isopropyl-benzylamide]
IC50 [1]: < 100 nM | IC50 [2]: < 100 nM

CC(=O)N1CCN(S(=O)(=O)c2ccc(C(C)C)cc2)[C@@H](C(=O)NCCc2ccc(Cl)cc2)C1 [Example 138, (R)-4-acetyl-1-(4-isopropyl-benzenesulfonyl)-piperazine-2-carboxylic acid [2-(4-chloro-phenyl)-ethyl]-amide]
IC50 [1]: > 1000 nM | IC50 [2]: > 1000 nM

CC(=O)N1CCN(S(=O)(=O)c2ccc(C(C)C)cc2)C(C(=O)NCc2ccc(C3CCCC3)cc2)C1 (centres unmarked) [Example 139, 4-acetyl-1-(4-isopropyl-benzenesulfonyl)-piperazine-2-carboxylic acid 4-cyclopentyl-benzylamide]
IC50 [1]: 100 to 1000 nM | IC50 [2]: 100 to 1000 nM

CCCC(CCC)c1ccc(CNC(=O)C2CN(C(C)=O)CCN2S(=O)(=O)c2ccc(C(C)C)cc2)cc1 (centres unmarked) [Example 140, 4-acetyl-1-(4-isopropyl-benzenesulfonyl)-piperazine-2-carboxylic acid 4-(1-propyl-butyl)-benzylamide]
IC50 [1]: > 1000 nM | IC50 [2]: > 1000 nM

CC(=O)N1CCN(S(=O)(=O)c2ccc(C(C)C)cc2)C(C(=O)NCc2ccc(-c3cccc(Cl)c3)cc2)C1 (centres unmarked) [Example 141, 4-acetyl-1-(4-isopropyl-benzenesulfonyl)-piperazine-2-carboxylic acid (3′-chloro-biphenyl-4-ylmethyl)-amide]
IC50 [1]: > 1000 nM | IC50 [2]: > 1000 nM

CC(=O)N1CCN(S(=O)(=O)c2ccc(C(C)C)cc2)C(C(=O)NCc2ccc(-c3ccccc3Cl)cc2)C1 (centres unmarked) [Example 142, 4-acetyl-1-(4-isopropyl-benzenesulfonyl)-piperazine-2-carboxylic acid (2′-chloro-biphenyl-4-ylmethyl)-amide]
IC50 [1]: > 1000 nM | IC50 [2]: > 1000 nM

COCc1ccc(S(=O)(=O)N2CCN(C(C)=O)CC2C(=O)NCc2ccc(C(F)(F)F)cc2)cc1 (centres unmarked) [Example 143, 4-acetyl-1-(4-methoxymethyl-benzenesulfonyl)-piperazine-2-carboxylic acid 4-trifluoromethyl-benzylamide]
IC50 [1]: > 1000 nM | IC50 [2]: > 1000 nM

CCc1ccc(CNC(=O)C2CN(C(C)=O)CCN2S(=O)(=O)c2ccc(C(C)C)cc2)cc1 (centres unmarked) [Example 144, 4-acetyl-1-(4-isopropyl-benzenesulfonyl)-piperazine-2-carboxylic acid 4-ethyl-benzylamide]
IC50 [1]: 100 to 1000 nM | IC50 [2]: 100 to 1000 nM
